Values after ≈ are worked out from the molar mass of the structure shown. Where two headings read alike, the source gives them in different places.
Experiments:
[1] = tested on: S. aureus (JE2, NTML transposon mutants, Newman resistant isolates); test: POM-HEX half-maximal growth inhibitory concentration (IC50), microtiter broth dilution; assay type: cell-based; details: Staphylococcus aureus
Method: Half-maximal inhibitory concentration (IC50) determination was performed using microtiter broth dilution in clear 96-well plates ([European Committee for Antimicrobial Susceptibility Testing (EUCAST) of the ES of CM and ID (ESCMID), 2000]). Briefly, POM-HEX was added to 75 µL LB media at a final concentration of 20–50 µM POM-HEX and 0.5% DMSO, with POM-HEX concentrations varying according to resistant strain. Subsequently, POM-HEX was serially diluted in LB media containing 0.5% DMSO for a total of 10 dilutions. Two wells were left without drug, one used to define 100% growth, and the other used to control for media contamination and to define 0% growth. Seventy-five microliters of mid-log phase S. aureus diluted to 1 × 10^5 colony forming units/mL were subsequently added to the plate. Following inoculation, plates were incubated at 37°C with shaking, and OD600 measurements were taken every 20 min for a total of 16 hr. Half-maximal inhibitory concentrations (IC50) were determined by fitting the OD600 of each condition following 10 hr of growth to a nonlinear regression using GraphPad Prism software. Experiments were performed in triplicate with technical duplicates.
Generation of POM-HEX resistant strains was performed by plating log-phase S. aureus Newman on LB agar containing 3.33 μM POM-HEX and incubating at 37°C overnight. Surviving single colonies were grown overnight in LB media and frozen in 10% glycerol for long term storage. All assays were performed from fresh overnight inoculations from glycerol stocks.

GloB = tested on: GloB; set-up: method as in Mikati et al., 2020; details: ref Mikati et al., 2020; cited from earlier work
S. aureus Newman [2] = test: Minimum inhibitory concentration (MIC) in liquid LB media; assay type: cell-based; details: Staphylococcus aureus, NEWMAN
Method: (§1) Antibiotic resistance frequency was determined on LB agar plates containing 4× and 10×, the minimum inhibitory concentrations of several antibiotics. MICs were determined for S. aureus Newman in liquid LB media. […] Briefly, S. aureus Newman was grown in LB media to late log-phase and centrifuged at 4000 × g for 15 min before resuspension at an OD600 nm of 30 (~1E11 CFU/mL) in LB media. One hundred microliter aliquots of concentrated S. aureus was plated in duplicate on selective and non-selective plates and incubated at 37°C. After 24 hr, mutation rates were calculated by counting the number of colonies present and dividing by the total number of colonies plated. Experiments were performed in triplicate.

S. aureus Newman [3] = assay type: cell-based, Staphylococcus aureus; details: LB agar, 24 hr, mean ± SD
Method: as §1

CC(C)(C)C(=O)OCOP(=O)(OCOC(=O)C(C)(C)C)C1CCCN(O)C1=O (stereo not shown) [POM-HEX]
IC50 ([1]; 10 h, read-out: POM-HEX IC50, S. aureus JE2 parental strain, OD600 at 10 hr): 1540 nM | IC50 ([1]; read-out: POM-HEX IC50, transposon mutant NE64 (hemY, SAUSA300_1781)): 1430 nM | IC50 ([1]; read-out: POM-HEX IC50, transposon mutant NE145 (uvrA, SAUSA300_0742)): 1460 nM | IC50 ([1]; read-out: POM-HEX IC50, transposon mutant NE202 (SAUSA300_1902)): 700 nM | IC50 ([1]; read-out: POM-HEX IC50, transposon mutant NE223 (truA, SAUSA300_2173)): 1390 nM | IC50 ([1]; read-out: POM-HEX IC50, transposon mutant NE293 (SAUSA300_1285)): 1410 nM | IC50 ([1]; read-out: POM-HEX IC50, transposon mutant NE355 (gbaA, SAUSA300_2515)): 1730 nM | IC50 ([1]; read-out: POM-HEX IC50, transposon mutant NE364 (SAUSA300_0671)): 1650 nM | IC50 ([1]; read-out: POM-HEX IC50, transposon mutant NE377 (GloB, SAUSA300_1505)): 10600 nM | IC50 ([1]; read-out: POM-HEX IC50, transposon mutant NE386 (rot, SAUSA300_1708)): 1400 nM | IC50 ([1]; read-out: POM-HEX IC50, transposon mutant NE478 (phnE, SAUSA300_0142)): 1610 nM | IC50 ([1]; read-out: POM-HEX IC50, transposon mutant NE503 (estA, FrmB, SAUSA300_2564)): 6280 nM | IC50 ([1]; read-out: POM-HEX IC50, transposon mutant NE520 (proC, SAUSA300_1452)): 1470 nM | IC50 ([1]; read-out: POM-HEX IC50, transposon mutant NE532 (SAUSA300_2473)): 1560 nM | IC50 ([1]; read-out: POM-HEX IC50, transposon mutant NE541 (SAUSA300_0201)): 1600 nM | IC50 ([1]; read-out: POM-HEX IC50, transposon mutant NE621 (SAUSA300_0581)): 1620 nM | IC50 ([1]; read-out: POM-HEX IC50, transposon mutant NE812 (SAUSA300_0299)): 1640 nM | IC50 ([1]; read-out: POM-HEX IC50, transposon mutant NE929 (mtlF, SAUSA300_2105)): 1700 nM | IC50 ([1]; read-out: POM-HEX IC50, transposon mutant NE937 (fruC, SAUSA300_1993)): 1670 nM | IC50 ([1]; read-out: POM-HEX IC50, transposon mutant NE949 (hsdM2, SAUSA300_1752)): 1730 nM | IC50 ([1]; read-out: POM-HEX IC50, transposon mutant NE1039 (psuG, SAUSA300_0312)): 1730 nM | IC50 ([1]; read-out: POM-HEX IC50, transposon mutant NE1071 (capD, SAUSA300_0538)): 1540 nM | IC50 ([1]; read-out: POM-HEX IC50, transposon mutant NE1118 (dapD, SAUSA300_1290)): 1690 nM | IC50 ([1]; read-out: POM-HEX IC50, transposon mutant NE1127 (lpl4, SAUSA300_0414)): 1720 nM | IC50 ([1]; read-out: POM-HEX IC50, transposon mutant NE1173 (SAUSA300_1792)): 1840 nM | IC50 ([1]; read-out: POM-HEX IC50, transposon mutant NE1225 (SAUSA300_0421)): 2150 nM | IC50 ([1]; read-out: POM-HEX IC50, transposon mutant NE1238 (SAUSA300_0214)): 2080 nM | IC50 ([1]; read-out: POM-HEX IC50, transposon mutant NE1283 (tnp, SAUSA300_0028)): 2100 nM | IC50 ([1]; read-out: POM-HEX IC50, transposon mutant NE1296 (saeS, SAUSA300_0690)): 2070 nM | IC50 ([1]; read-out: POM-HEX IC50, transposon mutant NE1486 (phoP, SAUSA300_1639)): 2180 nM | IC50 ([1]; read-out: POM-HEX IC50, transposon mutant NE1505 (SAUSA300_0840)): 2200 nM | IC50 ([1]; read-out: POM-HEX IC50, transposon mutant NE1519 (accC, SAUSA300_1563)): 1750 nM | IC50 ([1]; read-out: POM-HEX IC50, transposon mutant NE1547 (SAUSA300_2508)): 1480 nM | IC50 ([1]; read-out: POM-HEX IC50, transposon mutant NE1610 (pdhD, SAUSA300_0996)): 1230 nM | IC50 ([1]; read-out: POM-HEX IC50, transposon mutant NE1682 (hlgB, SAUSA300_2367)): 1370 nM | IC50 ([1]; read-out: POM-HEX IC50, transposon mutant NE1723 (SAUSA300_0094)): 1340 nM | Prodrug activation product with GloB, in words (GloB): removes only one POM moiety | MIC (S. aureus Newman [2]): 3.13 µg/mL (≈ 7.39 µM) | Mutational frequency at 4× MIC (S. aureus Newman [3]): 5.96 ± 1.60 E-07 | Mutational frequency at 10× MIC (S. aureus Newman [3]): 2.92 ± 0.57 E-07

Source: PMC8318587, “Structure-guided microbial targeting of antistaphylococcal prodrugs” (eLife, 2021)
